Entries after “also recorded” stand apart in the source; their conditions may differ. Each block holds one compound with its values, some of them ahead of it.
What was measured:
Type in all cases: cell-based
rat TRPV1 [1] = target: T1, rat TRPV1 (Rattus norvegicus, UniProt O35433); assay: TRPV1-mediated calcium influx (Fluo-4) in HEK cells inducibly expressing TRPV1; settings: for calcium influx in response to individual terpene / calcium flux in response to individual cannabinoid: HEK+TRPV1 cells; for calcium influx in response to individual terpene: each terpene applied alone; for calcium flux in response to individual cannabinoid: each cannabinoid applied alone
T1 construct: FLAG; expressed in transfected cells; host or cells: TRex HEK293 (pcDNA6TR), rat TRPV1 cDNA in pcDNA4TO, tetracycline-induced
T1 sequence (O35433 whole entry): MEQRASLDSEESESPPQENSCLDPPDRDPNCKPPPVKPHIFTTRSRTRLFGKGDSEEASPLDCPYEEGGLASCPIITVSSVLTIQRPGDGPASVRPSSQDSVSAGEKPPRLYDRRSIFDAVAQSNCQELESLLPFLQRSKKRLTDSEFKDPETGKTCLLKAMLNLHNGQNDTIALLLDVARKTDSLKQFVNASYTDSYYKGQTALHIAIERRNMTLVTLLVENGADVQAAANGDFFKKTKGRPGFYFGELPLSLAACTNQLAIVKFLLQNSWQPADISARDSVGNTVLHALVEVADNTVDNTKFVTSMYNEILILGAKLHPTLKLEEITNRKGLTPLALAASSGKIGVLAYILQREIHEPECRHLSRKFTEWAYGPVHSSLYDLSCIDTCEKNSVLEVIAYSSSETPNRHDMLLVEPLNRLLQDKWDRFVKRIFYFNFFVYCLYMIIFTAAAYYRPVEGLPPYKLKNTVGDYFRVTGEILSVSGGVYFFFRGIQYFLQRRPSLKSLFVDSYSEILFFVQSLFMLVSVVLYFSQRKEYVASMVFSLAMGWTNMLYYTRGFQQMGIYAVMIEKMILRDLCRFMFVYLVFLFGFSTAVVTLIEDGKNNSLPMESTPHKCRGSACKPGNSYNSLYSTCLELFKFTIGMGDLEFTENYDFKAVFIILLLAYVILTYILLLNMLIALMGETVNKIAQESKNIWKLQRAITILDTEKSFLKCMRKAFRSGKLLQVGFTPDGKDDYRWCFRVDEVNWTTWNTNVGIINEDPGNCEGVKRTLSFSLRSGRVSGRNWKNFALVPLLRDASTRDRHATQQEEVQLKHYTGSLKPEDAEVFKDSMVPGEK
Procedure: The HEK293 cell line was stably transfected with the pcDNA6TR (Invitrogen, CA) plasmid (encoding the tetracycline-sensitive TREx repressor protein), and was maintained in DMEM+10% fetal bovine serum (inactivated at 55° C. for 1 h)+2 mM glutamine in humidified 5% CO2 atmosphere at 37° C. Selection pressure on the TRex 293 cells was maintained by continuous culture in 10 μg/ml Blasticidin (Sigma, St Louis, Mo.).
For production of TRex HEK293 cells with inducible expression of TRPV1, parental cells were electroporated with the rat TRPV1 cDNA in the pcDNA4TO vector and clonal cell lines were selected by limiting dilution in the presence of 400 μg/ml zeocin (Invitrogen, CA). TRPV1 expression was induced using 1 μg/ml tetracycline for 16 h at 37° C.
(§1) Calcium responses mediated by TRPV1 were tested by calcium assay in the cell culture system. Cells were washed and incubated with 0.2 μM fluo-4 acetoxymethyl ester (“Fluo-4”) for 30 minutes at 37° C. in a standard modified Ringer's solution of the following composition (in mM): NaCl 145, KCl 2.8, CsCl 10, CaCl2 10, MgCl2 2, glucose 10, Hepes.NaOH 10, pH 7.4, 330 mOsm. Cells were transferred to 96-well plates at 50,000 cells/well and stimulated as indicated. Calcium signals were acquired using a Flexstation 3 (Molecular Devices, Sunnydale, USA). Data was analyzed using SoftMax® Pro 5 (Molecular Devices). Where indicated, nominally calcium-free external conditions were achieved by the preparation of 0 mM CaCl2 Ringer solution containing 1 mM EGTA. Where indicated, capsaicin (10 μM) and ionomycin (500 nM) were used as positive controls to induce calcium responses. Capsazepine (10 μM) was used where indicated to specifically antagonize TRPV1-mediated calcium responses. Where indicated, baseline traces (no stimulation, NS) were subtracted. Where indicated, vehicle alone traces were subtracted. Where indicated, vehicle comprising various diluents matched to corresponding mixtures was used as a negative control.

HEK wild type cells = assay: Calcium flux (Fluo-4) in wild-type HEK cells without the TRPV1 construct; settings: for calcium response to individual cannabinoid: cells without TRPV1
Procedure: as §1
When wild-type HEK cells without the TRPV1 construct were presented with the same stimulus conditions, calcium fluxes were not observed (FIGS. 5A-5C).

rat TRPV1 [2] = target: T1, rat TRPV1; assay: Whole-cell patch clamp in single HEK293 cells overexpressing rat TRPV1; settings: for inward current: average of 6 independent experiments; for outward current: 5 μM myrcene or 1 μM capsaicin
Procedure: HEK293 cells were kept in sodium-based extracellular Ringer's solution containing 140 mM NaCl, 1 mM CaCl2, 2 mM MgCl2, 2.8 mM KCl, 11 mM glucose, and 10 mM HEPES-NaOH, pH 7.2 and osmolarity 300 mOsmol. The cells' cytosol was perfused with intracellular patch pipette solution containing 140 mM Cs-glutamate, 8 mM NaCl, 1 mM MgCl2, 3 mM MgATP, and 10 mM HEPES-CsOH. The standard internal Ca^2+ concentration was buffered to 180 nM with 4 mM Ca and 10 mM BAPTA. The level of free unbuffered Ca was adjusted using the calculator provided with WebMaxC (http://www.stanford.edu/˜cpatton/webmaxcS.htm). The pH of the final solution was adjusted to pH 7.2 and osmolarity measured at 300 mOsmol.
1 μM capsaicin was used as a positive control for TRPV1 activation. Rapid extracellular solution application and exchange was performed with the SmartSquirt delivery system (Auto-Mate Scientific, San Francisco). The system includes a ValveLink TTL interface between the electronic valves and the EPC-9 amplifier (HEKA, Lambrecht, Germany). This configuration allows for programmable solution changes via the PatchMaster software (HEKA, Lambrecht, Germany).
Patch-clamp experiments were performed in the whole-cell configuration at 21-25° C. Patch pipettes had resistances of 2-3 MΩ. Data was acquired with PatchMaster software controlling an EPC-9 amplifier. Voltage ramps of 50 ms spanning the voltage range from −100 to 100 mV were delivered from a holding potential of 0 mV at a rate of 0.5 Hz over a period of […]. Voltages were corrected for a liquid junction potential of 10 mV. Currents were filtered at 2.9 kHz and digitized at 100 us intervals. Capacitive currents were determined and corrected before each voltage ramp. The development of currents for a given potential was extracted from individual ramp current records by measuring the current amplitudes at voltages of −80 mV and +80 mV. Data were analyzed with FitMaster (HEKA, Lambrecht, Germany), and IgorPro (WaveMetrics, Lake Oswego, Oreg., USA). Where applicable, statistical errors of averaged data are given as mean±s.e.m.

TRPV1 = TRPV1 (Rattus norvegicus, UniProt O35433); assay: TRPV1 desensitization over multiple sequential ligand applications (FIG. 13); settings: Area Under the Curve analysis, calcium assays or electrophysiology
Sequence of TRPV1 (O35433 whole entry): as above

calcium influx in response to individual terpene (rat TRPV1 [1]): not observed
Structure (SMILES): CC(C)=CCC[C@](C)(O)[C@@H]1CC=C(C)CC1 [Bisabolol, 6-methyl-2-(4-methylcyclohex-3-en-1-yl)hept-5-en-2-ol]

capsaicin-specific calcium flux (rat TRPV1 [1]; TRPV1-induced HEK cells): capsaicin-specific calcium fluxes
current induced (rat TRPV1 [2]; 1 μM capsaicin): 4-10 nA
inward current (rat TRPV1 [2]; 1 μM capsaicin after myrcene): approximately 9 nA
outward current (rat TRPV1 [2]): lower amplitude than the inward current
TRPV1 channel state on activation (IV relationship) (rat TRPV1 [2]; 5 μM myrcene, 1 μM capsaicin): dilated state
Structure (SMILES): COc1cc(CNC(=O)CCCC/C=C/C(C)C)ccc1O [capsaicin, reference compound]
capsaicin calcium flux (HEK wild type cells; HEK wild type cells without a construct encoding TRPV1): not detected
desensitization of the channel (TRPV1): can cause desensitization

Structure (SMILES): C=C(C)[C@@H]1CCC(C)=C[C@H]1c1c(O)cc(CCCCC)c(C(=O)O)c1O [cannabidiolic acid, Cannabidiolic Acid]
calcium flux in response to individual cannabinoid (rat TRPV1 [1]): most potent; also recorded: calcium flux was detected
calcium response to individual cannabinoid (HEK wild type cells): only minimal or absent

Structure (SMILES): C=CC(=C)CCC=C(C)C [Myrcene, 7-methyl-3-methylideneocta-1,6-diene]
calcium-mediated fluorescence, calcium-free medium, high concentration (rat TRPV1 [1]; 0 mM external calcium + 1 mM EGTA, 3.5 μg/ml): induced such increase
calcium-mediated fluorescence, calcium-free medium, low concentrations (rat TRPV1 [1]; 0 mM external calcium + 1 mM EGTA, 0.43, 0.875 and 1.75 μg/ml): did not cause increase
calcium response to different concentrations of myrcene (rat TRPV1 [1]; 3.5, 1.75, 0.875 and 0.43 μg/ml): dose-dependent
calcium influx in response to individual terpene (rat TRPV1 [1]): significant agonist activity
calcium influx in response to individual terpene (rat TRPV1 [1]; listed as myrcene): significant calcium flux was detected; also recorded: did not account for 100% of the calcium influx signal
calcium influx, calcium-free medium (HEK wild type cells; wild-type HEK cells without TRPV1, myrcene 0.43-3.5 μg/ml): not observed or were only minimal
calcium flux in response to myrcene (HEK wild type cells; wild-type HEK cells, 3.5-0.43 μg/ml, compared with HEK+TRPV1): much smaller
outward current (rat TRPV1 [2]): lower amplitude than the inward current
TRPV1 channel state on activation (IV relationship) (rat TRPV1 [2]; 5 μM myrcene, 1 μM capsaicin): primarily in State 1
inward current (rat TRPV1 [2]; 5 μM myrcene, 1 mM Ca): approximately 0.5 nA
current induced (rat TRPV1 [2]; 5 μM, 10 μM and 150 μM myrcene): 0.5-2.2 nA
dose response of current in individual cells (rat TRPV1 [2]; 5, 10, 150 μM): dose-dependent response
response to second stimulus Cannabidiol after prior Myrcene saturation (rat TRPV1 [2]; Myrcene at 0 mM external Ca2+, then Cannabidiol at 1 mM external Ca2+, versus no prior Myrcene): suppressed
activator strength at TRPV1 (rat TRPV1 [2]; producing nA currents): strong activator of TRPV1
desensitization of the channel (TRPV1): cause desensitization

Structure (SMILES): C=C(C)[C@@H]1CCC(C)=C[C@H]1c1c(O)cc(CCCCC)cc1O [Cannabidiol]
calcium flux in response to individual cannabinoid (rat TRPV1 [1]): most potent; also recorded: calcium flux was detected
calcium response to individual cannabinoid (HEK wild type cells): only minimal or absent
Imax of activated current (rat TRPV1 [2]; 30 μM CBD): up to 5 nA
Erev of rectifying current (rat TRPV1 [2]; CBD): ~0 mV
sensitivity of CBD-induced current (rat TRPV1 [2]; capsazepine application, washout of CBD): sensitive to both capsazepine and washout
desensitization of the channel (TRPV1): cause desensitization

calcium influx in response to individual terpene (rat TRPV1 [1]; listed as nerolidol): significant calcium flux was detected
Structure (SMILES): C=CC(C)(O)CCC=C(C)CCC=C(C)C (stereo not drawn) [Nerolidol, 3,7,11-Trimethyl-1,6,10-dodecatrien-3-ol]
calcium influx in response to individual terpene (rat TRPV1 [1]): more modest agonist activity; also recorded: activated TRPV1-mediated Ca^2+ influx

Structure (SMILES): CCCCCc1cc(O)c2c(c1)OC(C)(CCC=C(C)C)C=C2 (stereo not drawn) [cannabichromene, Cannabichromene]
calcium flux in response to individual cannabinoid (rat TRPV1 [1]): most potent; also recorded: calcium flux was detected
calcium response to individual cannabinoid (HEK wild type cells): only minimal or absent

Structure (SMILES): C=C/C(C)=C/CC=C(C)C [Ocimene]
calcium influx in response to individual terpene (rat TRPV1 [1]): not observed

calcium influx in response to individual terpene (rat TRPV1 [1]): not observed
Structure (SMILES): C=CC(C)(O)CCC=C(C)C (stereo not drawn) [Linalool, 3,7-dimethyl-1,6-octadien-3-ol]

Structure (SMILES): C=C(C)[C@@H]1CCC(C)=C[C@H]1c1c(O)cc(CCC)cc1O [cannabidivarin, Cannabidivarin]
calcium flux in response to individual cannabinoid (rat TRPV1 [1]): most potent; also recorded: calcium flux was detected
calcium response to individual cannabinoid (HEK wild type cells): only minimal or absent

Structure (SMILES): CCCCCc1cc(O)c(C/C=C(\C)CCC=C(C)C)c(O)c1C(=O)O [cannabigerolic acid, Cannabigerolic Acid]
calcium flux in response to individual cannabinoid (rat TRPV1 [1]): most potent; also recorded: calcium flux was detected
calcium response to individual cannabinoid (HEK wild type cells): only minimal or absent

myrcene-induced calcium flux in response to TRPV1 inhibitor (rat TRPV1 [1]; cells activated with 3.5 μg/ml myrcene, 10 μM capsazepine): diminished
Structure (SMILES): Oc1cc2c(cc1O)CN(C(=S)NCCc1ccc(Cl)cc1)CCC2 [capsazepine, reference compound]

Reference: patent US20200405657A1, “TREATMENT OF PAIN USING ALLOSTERIC MODULATOR OF TRPV1” (priority 2019, published 2020)
